Measured values published in patent US20210347758A1 (Tesaro, Inc., priority 2018, published 2021).
In brackets after ≈: the same amount, converted by molar mass. Read-outs that look alike come from different tables or passages of the source.

Key:
physchem = conditions: for solubility at 24 h: 37 °C, thermodynamic from solid
Protocol: For each sample, 30 mg of the freebase was weighed into vials (in triplicate) and 1 mL of water or buffer was added. The following buffers (50 mM in each case) used were: • pH 1 25 mL KCl solution (1.49 g dissolved in 100 mL water) and 42.5 mL HCl solution (1.66 mL made up to 100 mL with water) were added together and made up to 100 mL with water; • pH 4.5 anhydrous sodium acetate (1.07 g) was dissolved in water (about 150 mL) before adding 5.9 mL acetic acid solution (11.6 mL glacial acetic acid made up to 100 mL with water). The resulting solution was made up to 500 mL with water; and • pH 6.8 25 mL of KH2PO4 solution (2.72 g dissolved in about 80 mL water and made up to 100 mL with water) and 11.2 mL of NaOH solution (800 mg of sodium hydroxide was dissolved and diluted to 100 mL with water) were added together and made up to 100 mL with water.
(§1) The resulting samples were shaken at 37° C. for 1 hour. […] All samples were then shaken at 37° C. for 23 hours. […] Any solids which were isolated by filtration were assessed by XRPD to determine whether the form of the material had changed.

[1] = solids shaken in water or pH 1 / 4.5 / 6.8 buffer at 37° C.
Protocol: as §1

[2] = up to 1 mL
Protocol: Between each addition, the mixture was checked for dissolution and, if no dissolution was apparent, the mixture was heated to about 50° C. and checked again. After 300 μL of solvent had been added, 100 μL aliquots were added sequentially. This procedure was continued until dissolution was observed or until 1 mL of solvent had been added. If no dissolution occurred, the solids were isolated by filtration and an XRPD pattern was collected. If dissolution occurred, the solvent was evaporated and an XRPD pattern was collected on any solid which remained.

[3] = for Hygroscopicity: GVS, double cycle
Protocol: Typically, approximately 10-20 mg of sample was placed into a mesh vapour sorption balance pan and loaded into an IGASorp Moisture Sorption Analyser balance by Hiden Analytical. The sample was subjected to a ramping profile from 40-90% relative humidity (RH) at 10% increments, maintaining the sample at each step until a stable weight had been achieved (98% step completion, minimum step length 30 minutes, maximum step length 60 minutes) at 25° C. After completion of the sorption cycle, the sample was dried using the same procedure to 0% RH, and finally taken back to the starting point of 40% RH. Two cycles were performed. The weight change during the sorption/desorption cycles were plotted, allowing for the hygroscopic nature of the sample to be determined.

[4] = test system: poly (ADP-ribose) polymerase (“PARP”) proteins; conditions: selective for PARP-1 and PARP-2; Thorsell et al.; cited from earlier work
[5] = test system: BRCA1- and BRCA2-deficient cell lines; conditions: in vitro; cited from earlier work
[6] = test system: human cancers with deficiencies in BRCA1 and BRCA2 or with homologous recombination deficiency (HRD); conditions: mutated or wild-type BRCA1/2; cited from earlier work
[7] = pH 1 buffer (50 mM), shaken at 37° C. for 24 hours in total, average of triplicate
[8] = water, shaken at 37° C. for 24 hours in total, average of triplicate

Solubility (physchem; [7]) [µg/mL] | solubility at 24 h (physchem; pH 4.5 sodium acetate/acetic acid buffer, pH 4.5, aqueous buffer, pH 4.5 buffer (50 mM), shaken at 37° C. for 24 hours in total, average of triplicate) [µg/mL] | solubility at 24 h (physchem; pH 6.8 KH2PO4/NaOH buffer, pH 6.8, aqueous buffer, pH 6.8 buffer (50 mM), shaken at 37° C. for 24 hours in total, average of triplicate) [µg/mL] | Solubility (physchem; water, Solubility in water, summary statement, conditions not stated) [µg/mL] | Solubility (physchem; [8]) [µg/mL] | Dissolution in 2-propanol ([2]; 2-propanol, heated to about 50° C.) | Dissolution in ethanol ([2]; ethanol, with heating to about 40° C.) | Solubility (physchem; pH 4.5 buffer (50 mM), shaken at 37° C. for 24 hours in total, average of triplicate) [µg/mL] | Solubility (physchem; pH 6.8 buffer (50 mM), shaken at 37° C. for 24 hours in total, average of triplicate) [µg/mL] | Hygroscopicity ([3]; listed as Niraparib freebase Form I) | Hygroscopicity ([3]; listed as niraparib freebase Form I) | GVS mass increase ([3]; up to 90% RH, 25° C.) | Solid form after filtration (XRPD) ([1]; listed as crystalline samples) | Compound | Solid form after filtration (XRPD) ([1]; listed as amorphous samples) | PARP inhibition [4] | Inhibition of proliferation [5] | Tumor growth [6]
11800 (≈ 36.8 mM) | 13400 (≈ 41.8 mM) | 600 (≈ 1.87 mM) | ~1000 (≈ 3.12 mM) | 800 (≈ 2.5 mM) | partially soluble | Complete dissolution | – | – | – | – | – | – | NC(=O)c1cccc2cn(-c3ccc([C@@H]4CCCNC4)cc3)nc12 [Amorphous Form, 2-{4-[(3S)-piperidin-3-yl]phenyl}-2H-indazole-7-carboxamide] | a new crystalline form was obtained (Form V) | – | – | –
30900 (≈ 96.4 mM) | – | – | – | <100 | – | – | 11800 (≈ 36.8 mM) | 700 (≈ 2.18 mM) | non-hygroscopic | non-hydroscopic | about 0.7% | unchanged | NC(=O)c1cccc2cn(-c3ccc([C@@H]4CCCNC4)cc3)nc12 [Crystalline Form I, 2-{4-[(3S)-piperidin-3-yl]phenyl}-2H-indazole-7-carboxamide] | – | – | – | –
– | – | – | – | – | – | – | – | – | – | – | – | – | NC(=O)c1cccc2cn(-c3ccc([C@@H]4CCCNC4)cc3)nc12 [Niraparib, 2-{4-[(3S)-piperidin-3-yl]phenyl}-2H-indazole-7-carboxamide] | – | potent inhibitor | inhibits the proliferation | decreases tumor growth
